US20250361231A1, “FUSED RING COMPOUNDS WITH SULFUR-CONTAINING SUBSTITUENTS, PREPARATION METHODS, INSECTICIDE COMPOSITIONS, AND APPLICATION” (priority 2022, published 2025)

Assays:
Type in all cases: in vivo
[1] = system: Myzus persicae; assay: Activity against Myzus persicae (green peach aphid), pea seedling roots in test solution; settings: 144 h, test rate 100 ppm, 6 days after placing seedlings into test solutions
Description: (§1) This test case is used to illustrate the insecticidal activity inhibition (%) of compounds with the structure shown in formula (I) (dosage of 100 ppm).
(§2) Roots of pea seedlings infested with an aphid population of mixed ages were placed directly into agueous test solutions prepared from […] stock solutions. The samples were assessed for mortality 6 days after placing seedlings into test solutions.

[2] = system: Leucania separate; assay: Activity against Leucania separate, sprayed maize sprouts, L2 larvae; settings: 96 h; application rate 100 ppm; 4 days after infestation; read-out: effect in at least one of the two categories (mortality or growth inhibition)
Description: as §1
Maize sprouts placed onto an agar layer in 24-well microtiter plates were treated with agueous test solutions prepared from 10,000 ppm DMSO stock solutions by spraying. After drying, the plates were infested with L2 larvae (6 to 10 per well). The samples were assessed for mortality and growth inhibition in comparison to untreated samples 4 days after infestation.

[3] = system: Nilaparvata lugens; assay: Activity against Nilaparvata lugens, sprayed leaf discs, adults; settings: for mortality at 100 ppm: Nilaparvata lugens, foliar, 144 h, test rate 100 ppm, 6 days after incubation; for effect: application rate 45 ppm
Description: Cotton leaf discs were placed on agar in 24-well microtiter plates and sprayed with agueous test solutions prepared from 10,000 ppm DMSO stock solutions. After drying the leaf discs were infested with adult Nilaparvata lugens. The samples were checked for mortality 6 days after incubation.

[4] = system: Aphis craccivora Koch; assay: Activity against Aphis craccivora Koch, pea seedling roots in test solution; settings: for mortality at 100 ppm: Aphis craccivora, 144 h, test rate 100 ppm, 6 days after placing seedlings into test solutions; for effect: application rate 4 ppm
Description: as §2

[5] = system: Plutella xylostella; assay: Activity against Plutella xylostella, artificial diet in 24-well plates, L2 larvae; settings: for percent effect (mortality or growth inhibition) at 100 ppm: Plutella xylostella, 120 h, application rate 100 ppm, 5 days after infestation, read-out: effect in at least one of the two categories (mortality or growth inhibition); for effect: application rate 4 ppm
Description: (§3) 24-well microtiter plates with artificial diet were treated with agueous test solutions prepared from 10,000 ppm DMSO stock solutions by pipetting. After drying, the plates were infested with L2 larvae (10 to 15 per well). The samples were assessed for mortality and growth inhibition in comparison to untreated samples 5 days after infestation.

[6] = system: Chilo suppressalis; assay: Activity against Chilo suppressalis, soaked rice seedlings, L2 larvae; settings: application rate 5 ppm, after 96 hours, read-out: effect (mortality rates)
Description: Take 5-6 rice seedlings, each 3-4 cm in height, soak them thoroughly in the prepared solution, After drying, the plates were infested with L2 larvae (10 per well). Keep them in an observation room for rearing and observation. Use 0.1% warm water as a blank control. Incubate them in an observation room at 25 to 27° C. After 96 hours, assess the samples based on mortality rates

[7] = system: Laphygma exigua; assay: Activity against Laphygma exigua, artificial diet in 24-well plates, L2 larvae; settings: application rate 4 ppm
Description: as §3

SMILES | mortality at 100 ppm [1] | percent effect (mortality or growth inhibition) at 100 ppm [2] | mortality at 100 ppm [3] | mortality at 100 ppm [4] | effect [4] | percent effect (mortality or growth inhibition) at 100 ppm [5] | mortality at 5 ppm [6] | effect [3] | effect [7] | effect [5]
CCS(=O)(=O)c1cc2nc(C3CC3)n(C)c2nc1-c1nc2cc(C(F)(F)F)cnc2n1C [Compound I-1] | ≥ 90% | ≥ 90% | ≥ 90% | ≥ 90% | 100% | ≥ 90% |  |  |  | 
CCS(=O)(=O)c1cc2nc(C)n(C)c2nc1-c1nc2cc(C(F)(F)F)cnc2n1C [Compound I-2] | ≥ 90% | ≥ 90% | ≥ 90% | ≥ 90% |  | ≥ 90% |  |  |  | 
CCS(=O)(=O)c1cc2nc(C3CC3)sc2nc1-c1nc2cc(C(F)(F)F)cnc2n1C [Compound I-73] | ≥ 90% | ≥ 90% | ≥ 90% | ≥ 90% | 100% | ≥ 90% | 100% | 95% | 100% | 100%
CCS(=O)(=O)c1cc2nc(C(F)(F)F)sc2nc1-c1nc2cc(C(F)(F)F)cnc2n1C [Compound I-100] |  |  |  |  | 100% |  |  | 95% |  | 
CCS(=O)(=O)c1cc2sc(C3CC3)nc2nc1-c1nc2cc(C(F)(F)F)cnc2n1C [Compound I-109] | ≥ 90% | ≥ 90% | ≥ 90% | ≥ 90% | 100% | ≥ 90% | 100% | 95% | 100% | 100%
